Where “and” joins values, the source holds several entries; their conditions need not be identical. Equal entries are not always repeated.
What follows are compounds tested on A/Washington/29/2009 (H1N1) (assay: microbe, parasite or virus in culture). Settings: Influenza A virus, H1N1, read-out: EC50 against A/Washington/29/2009 (H1N1).
Format: cell-based

| Compound | EC50 [µM] |
| --- | --- |
| Clc1ccc(-c2cc(CNC34CC5CC(CC(C5)C3)C4)no2)s1 [9q, N-((5-(5-chlorothiophen-2-yl)isoxazol-3-yl)methyl)adamantan-1-amine] | 0.1 to 0.2 |

Each compound was assayed against AM2-S31N proton channel (Influenza A virus, UniProt P0DOF5, S31N) (assay: not given). Settings: pH 5.5, 100 µM.
Format: biochemical

| Compound | Electrophysiological TEVC assay (% S31N channel inhibition) [%] |
| --- | --- |
| N-((5-(2-(methylsulfonyl)phenyl)isoxazol-3-yl)methyl)adamantan-1-amine [9m] | 47.4 ± 0.5 |

Same assay, conditions: pH 5.5, 100 µM; 100 µM

| Compound | Electrophysiological TEVC assay (% S31N channel inhibition) |
| --- | --- |
| 3-({[5-(3-methoxythiophen-2-yl)-1,2-oxazol-3-yl]methyl}amino)adamantan-1-ol [9s] | 83.8 ± 3.3% |
| c1ccc(-c2cc(CNC34CC5CC(CC(C5)C3)C4)no2)cc1 [9a, N-[(5-phenyl-1,2-oxazol-3-yl)methyl]adamantan-1-amine] | 91.2 ± 1.5% |
| OC12CC3CC(C1)CC(NCc1cc(-c4ccccc4Cl)on1)(C3)C2 [9d, 3-({[5-(2-chlorophenyl)-1,2-oxazol-3-yl]methyl}amino)adamantan-1-ol] | > 70% |
| CSc1ccccc1-c1cc(CNC23CC4CC(CC(O)(C4)C2)C3)no1 [9f, 3-[({5-[2-(methylsulfanyl)phenyl]-1,2-oxazol-3-yl}methyl)amino]adamantan-1-ol] | > 70% and > 90% |
| Oc1ccccc1-c1cc(CNC23CC4CC(CC(C4)C2)C3)no1 [9h, 2-(3-(((adamantan-1-yl)amino)methyl)isoxazol-5-yl)phenol] | > 70% |
| Clc1ccc(-c2cc(CNC34CC5CC(CC(C5)C3)C4)no2)s1 [9q, N-((5-(5-chlorothiophen-2-yl)isoxazol-3-yl)methyl)adamantan-1-amine] | > 70% |
| Clc1cc(-c2cc(CNC34CC5CC(CC(C5)C3)C4)no2)cs1 [9r, N-((5-(5-chlorothiophen-3-yl)isoxazol-3-yl)methyl)adamantan-1-amine] | > 70% |
| COc1sccc1-c1cc(CNC23CC4CC(CC(C4)C2)C3)no1 [9t, N-((5-(2-methoxythiophen-3-yl)isoxazol-3-yl)methyl)adamantan-1-amine] | > 70% |
| Clc1cc(-c2cc(CNC34CC5CC(CC(C5)C3)C4)no2)c(Cl)s1 [9u, N-((5-(2,5-dichlorothiophen-3-yl)isoxazol-3-yl)methyl)adamantan-1-amine] | > 70% |
| OC12CC3CC(C1)CC(NCc1cc(-c4cc(Cl)sc4Cl)on1)(C3)C2 [9v, 3-({[5-(2,5-dichlorothiophen-3-yl)-1,2-oxazol-3-yl]methyl}amino)adamantan-1-ol] | > 70% |

The compounds below were run on A/Denmark/528/2009 (H1N1) (assay: microbe, parasite or virus in culture). Settings: Influenza A virus, H1N1, read-out: EC50 against A/Denmark/528/2009 (H1N1).
Format: cell-based

| Compound | EC50 [µM] |
| --- | --- |
| Clc1ccc(-c2cc(CNC34CC5CC(CC(C5)C3)C4)no2)s1 [9q, N-((5-(5-chlorothiophen-2-yl)isoxazol-3-yl)methyl)adamantan-1-amine] | 0.1 to 0.2 |
